Consider 1 molecule from US6936723B2, “Synthetic salicylihalamides, apicularens and derivatives thereof” (Board of Regents, The University of Texas System, priority 2000, dated 2005).

The target of series [1] is trans-membraneous proton channel domain of V-ATPase (Bos taurus, UniProt P23956+P61420+Q29466+Q2TA24). Kind of series: Incubation with V-ATPase domains independently: proton channel domain. Format: biochemical. The source says: Therefore, the present invention provides a method for inhibiting the proton-pumping activity of V-ATPase by contacting V-ATPase, either in vitro or in vivo with the compounds of the present invention. Inhibition of the proton-pumping activity of V-ATPase is useful, inter alia, for the treatment and prevention of cancer and osteoporosis. […] See Boyd, M. R. et al., J Pharmacol. Exp. Ther. 297, 114-120 (2001); see also, PCT publication WO 00/51589 of Boyd et al. V-ATPase is composed of an ATPase domain and a proton translocating membraneous channel. […] See Crider, Xie and Stone, J. Biol. Chem. 269:17379-17381 (1994) for the experimental procedure for binding. This was shown by incubating select compounds of the present invention with the domains independently and showing that 70% of the channel activity was inhibited at 1 nM of the compound while there was virtually no interference with ATPase activity at the same concentration. See Example 7 and Table 5 below. See also Bill. Crider, Xie and Stone, J Biol. Chem. 269:17379-17381 (1994).

Series [2] has as its system SK-MEL-28 cells. Kind of series: Anti-cancer activity against SK-MEL-28 cells. To be noted: at 10 nM. Type of series: cell-based, human. The text has this:
The inventor has accomplished the first synthesis of both […] and (−)-salicylihalamide A. The synthesis utilizes a highly efficient, trans-selective ring-closing olefin metathesis for the assembly of the benzolactone skeleton and can be readily adapted to obtain a variety of analogs. […] This cell line is one of the cell lines in the NCI 60 cell line screen.
The absolute configuration of natural salicylihalamide A (1a) was originally misassigned in Boyd et al., 1997. The correct configuration is represented by structure 89. The ultimate proof for this assignment came from a crystallographic analysis of a p-bromobenzoate derivative of salicylihalamide 90, prepared from 73 in a manner similar to the synthesis of 74. […] (−)-salicylihalamide A does have chemotherapeutic activity. […] This cell line is one of the cell lines in the NCI 60 cell line screen.

In series [3] the target is T1, purified reconstituted V-ATPase from bovine brain (Bos taurus, UniProt P23956+P61420+Q29466+Q2TA24).
T1 construct: from tissue; host or cells: bovine brain
Put plainly: Inhibition of purified reconstituted V-ATPase (proton pumping). Type of series: biochemical. The text has this:
Therefore, the present invention provides a method for inhibiting the proton-pumping activity of V-ATPase by contacting V-ATPase, either in vitro or in vivo with the compounds of the present invention. […] See Boyd, M. R. et al., J Pharmacol. Exp. Ther. 297, 114-120 (2001); see also, PCT publication WO 00/51589 of Boyd et al. V-ATPase is composed of an ATPase domain and a proton translocating membraneous channel. […] See Crider, Xie and Stone, J. Biol. Chem. 269:17379-17381 (1994) for the experimental procedure for binding. […] See Example 7 and Table 5 below. See also Bill. Crider, Xie and Stone, J Biol. Chem. 269:17379-17381 (1994).
Others in the art typically use crude membrane preparations to assay V-ATPase activity.

Series [4] has as its system NCI 60-cell line panel. Kind of series: NCI 60-cell line human tumor screen (sulforhodamine B). Format: cell-based. To be noted: 48 hours incubation; 10^−6 to 10^−10 molar. The text has this: The NCI 60-cell line human tumor screen is a measure of the effectiveness of a compound for inhibiting or killing various human cancers. It is a set of 60 different cancer cell lines against which chemical compounds can be tested against to determine if the compound has anti-cancer activity. Each compound has an individual “fingerprint” based on effectiveness in killing each of the 60 cancer cell lines.
The anti-cancer activity of the synthesized (+)- and (−)-salicylihalamide-A compounds of the present invention (compounds 78 in FIG. 10 and 301a/301c in FIG. 14.) was indistinguishable. […] Salicylihalamide derivatives, showing increased stability over natural salicylihalamide, were tested in the NCI 60 cell-line screen. This screen is an art recognized model. Prior to assay, synthesized compounds were stored in dimethylsulfoxide at −70° C. Five different test concentrations of each compound were prepared by diluting the stock solution into complete medium. Sample concentrations were 2× the final concentration and range from 10^−6 and 10^−10 molar. An aliquot of each concentration of each compound was added to separate microtiter wells containing the respective cell lines in culture medium. The plates were incubated for 48 hours at 37° C. with 5% CO2 and 100% humidity. Adherent cells were fixed by addition of cold 50% trichloracetic acid and incubation at 4° C. for 60 minutes. Suspended cells were fixed to the bottom of the well by addition of 80% trichloracetic acid. The supernatant was removed from each well and then each well was washed with deionized water and allowed to dry. Sulforhodamine B solution was added to each well and allowed to incubate for 10 minutes at room temperature. Unbound sulforhodamine B was removed by washing with 1% acetic acid. The wells were allowed to dry. Bound sulforhodamine B was solubilized using 10 mM Tris base and the optical density at 515 nanometers was determined.

trans-membraneous proton channel domain of V-ATPase, sequence (P61420 whole entry, other chains not shown, the tested form may be a part): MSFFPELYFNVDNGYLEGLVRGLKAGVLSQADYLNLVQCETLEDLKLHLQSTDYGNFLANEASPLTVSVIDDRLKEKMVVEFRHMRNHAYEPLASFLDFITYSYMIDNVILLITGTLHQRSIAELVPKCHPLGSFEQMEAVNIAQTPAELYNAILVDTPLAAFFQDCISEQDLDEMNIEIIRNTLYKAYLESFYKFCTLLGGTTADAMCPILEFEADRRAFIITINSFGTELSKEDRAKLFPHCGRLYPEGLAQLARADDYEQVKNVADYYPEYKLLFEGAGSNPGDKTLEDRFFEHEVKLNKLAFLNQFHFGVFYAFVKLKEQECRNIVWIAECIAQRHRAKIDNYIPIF
trans-membraneous proton channel domain of V-ATPase, sequence (P23956 whole entry, other chains not shown, the tested form may be a part): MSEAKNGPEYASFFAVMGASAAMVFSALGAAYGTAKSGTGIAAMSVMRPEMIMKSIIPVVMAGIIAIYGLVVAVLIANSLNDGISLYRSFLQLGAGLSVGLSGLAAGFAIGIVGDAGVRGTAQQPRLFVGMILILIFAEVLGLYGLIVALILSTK
trans-membraneous proton channel domain of V-ATPase, sequence (Q29466 whole entry, other chains not shown, the tested form may be a part): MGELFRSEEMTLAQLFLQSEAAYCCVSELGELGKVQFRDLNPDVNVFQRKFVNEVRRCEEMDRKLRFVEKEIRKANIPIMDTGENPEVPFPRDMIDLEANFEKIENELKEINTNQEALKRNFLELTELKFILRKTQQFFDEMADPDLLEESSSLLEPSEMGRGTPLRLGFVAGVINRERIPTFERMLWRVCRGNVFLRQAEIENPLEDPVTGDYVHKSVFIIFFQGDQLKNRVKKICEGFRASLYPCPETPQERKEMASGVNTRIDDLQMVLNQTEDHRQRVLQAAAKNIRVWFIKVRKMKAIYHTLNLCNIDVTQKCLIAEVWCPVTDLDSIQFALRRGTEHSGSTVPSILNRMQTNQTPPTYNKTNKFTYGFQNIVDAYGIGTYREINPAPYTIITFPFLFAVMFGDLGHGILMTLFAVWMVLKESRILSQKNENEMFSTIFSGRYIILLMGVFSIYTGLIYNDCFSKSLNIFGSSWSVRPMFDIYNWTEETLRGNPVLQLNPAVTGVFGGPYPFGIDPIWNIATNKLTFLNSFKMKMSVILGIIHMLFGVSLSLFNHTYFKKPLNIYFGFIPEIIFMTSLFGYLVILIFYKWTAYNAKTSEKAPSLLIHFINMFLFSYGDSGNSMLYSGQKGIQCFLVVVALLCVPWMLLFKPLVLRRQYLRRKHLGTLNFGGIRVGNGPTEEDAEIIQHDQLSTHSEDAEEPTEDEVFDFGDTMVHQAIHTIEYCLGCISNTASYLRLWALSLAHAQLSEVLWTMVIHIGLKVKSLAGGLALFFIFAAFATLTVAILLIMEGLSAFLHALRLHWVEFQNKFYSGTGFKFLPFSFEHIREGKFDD
trans-membraneous proton channel domain of V-ATPase, sequence (Q2TA24 whole entry, other chains not shown, the tested form may be a part): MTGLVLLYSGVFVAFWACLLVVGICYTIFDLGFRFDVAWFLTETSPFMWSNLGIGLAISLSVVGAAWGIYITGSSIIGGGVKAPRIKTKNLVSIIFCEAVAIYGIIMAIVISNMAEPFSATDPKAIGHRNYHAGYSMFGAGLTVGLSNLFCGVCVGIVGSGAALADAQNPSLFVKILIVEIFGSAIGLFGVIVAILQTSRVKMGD

As to `CC/C=C\C=C/C(=O)N/C=C/C[C@H]1C[C@@H](O)[C@@H](C)C/C=C/Cc2cccc(O)c2C(=O)O1` [Compound 301a, salicylihalamide A], in series [1], the “binding site on V-ATPase” value is “membrane spanning Vo proton channel”. In addition, the “anti-cancer activity against SK-MEL-28 cells” value in series [2] is “active”. Moreover, in series [3], the “mode of V-ATPase inhibition (reversibility)” value is “reversible inhibitor”. Also, the “activity / differential cytotoxicity profile in the NCI 60-cell line screen” value in series [4] is on record as “differential cytotoxicity profile undistinguishable from the natural product”.
